13 compounds from ChEMBL document CHEMBL1909046, “DrugMatrix in vitro pharmacology data” can be followed below.

Data set [1] has as its target T1, Polyunsaturated fatty acid lipoxygenase ALOX15 (Oryctolagus cuniculus, UniProt P12530).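 Further: inhibition of 15-lipoxygenase enzyme activity measured with linoleic acid as the substrate; in other assays of this panel Not Active means under 50% inhibition at 10 µM.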
T1 sequence (P12530 whole entry): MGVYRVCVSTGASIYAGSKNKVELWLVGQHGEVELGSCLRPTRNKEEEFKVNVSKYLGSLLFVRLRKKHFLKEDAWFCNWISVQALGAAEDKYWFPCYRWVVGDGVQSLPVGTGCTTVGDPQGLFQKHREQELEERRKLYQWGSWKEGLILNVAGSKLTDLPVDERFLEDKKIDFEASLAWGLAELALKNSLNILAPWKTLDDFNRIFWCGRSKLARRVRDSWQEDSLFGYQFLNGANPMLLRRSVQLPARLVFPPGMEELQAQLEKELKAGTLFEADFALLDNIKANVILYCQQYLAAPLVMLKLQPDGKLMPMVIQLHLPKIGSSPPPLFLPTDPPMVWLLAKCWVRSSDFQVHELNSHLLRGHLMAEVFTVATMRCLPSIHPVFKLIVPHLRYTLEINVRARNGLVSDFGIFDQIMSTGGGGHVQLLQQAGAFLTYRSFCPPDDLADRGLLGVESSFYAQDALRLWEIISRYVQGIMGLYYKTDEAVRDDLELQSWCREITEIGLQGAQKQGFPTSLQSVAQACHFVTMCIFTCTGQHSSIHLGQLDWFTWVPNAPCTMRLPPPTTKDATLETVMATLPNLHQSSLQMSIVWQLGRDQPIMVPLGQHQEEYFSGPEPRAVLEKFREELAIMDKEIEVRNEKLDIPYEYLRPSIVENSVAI
The data set is described as follows: biochemical. The data set is classed as tissue-based, Reticulocytes.

The target of data set [2] is T2, Estrogen receptor (Homo sapiens, UniProt P03372). Further: in other assays of this panel Not Active means under 50% inhibition at 10 µM.
T2 sequence (P03372 whole entry): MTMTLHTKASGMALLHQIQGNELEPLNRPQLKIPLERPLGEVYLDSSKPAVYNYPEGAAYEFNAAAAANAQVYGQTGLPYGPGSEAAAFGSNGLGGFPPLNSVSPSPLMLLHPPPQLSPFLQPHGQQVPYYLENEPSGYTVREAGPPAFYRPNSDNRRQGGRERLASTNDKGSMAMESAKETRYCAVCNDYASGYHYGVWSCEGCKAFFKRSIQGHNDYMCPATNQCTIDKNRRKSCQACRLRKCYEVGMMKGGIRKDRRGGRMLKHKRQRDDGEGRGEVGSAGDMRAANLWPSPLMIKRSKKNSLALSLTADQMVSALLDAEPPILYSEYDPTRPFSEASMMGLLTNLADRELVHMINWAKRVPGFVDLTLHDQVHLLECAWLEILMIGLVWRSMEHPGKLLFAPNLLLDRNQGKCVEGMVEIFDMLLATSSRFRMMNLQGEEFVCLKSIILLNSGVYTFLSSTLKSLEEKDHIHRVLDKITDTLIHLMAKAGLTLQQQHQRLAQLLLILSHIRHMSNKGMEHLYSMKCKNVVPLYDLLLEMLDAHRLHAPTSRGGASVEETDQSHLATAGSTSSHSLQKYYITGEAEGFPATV
The note with it: sf9.

Data set [3] has as its target Kappa-type opioid receptor (Homo sapiens, UniProt P41145). The data set is described as follows: DRUGMATRIX: Opiate kappa (OP2, KOP) radioligand binding (ligand: [3H] Diprenorphine). The data set is classed as cell membranes, HEK293, Membrane. The note with it: hek293; Not Active = under 50% inhibition at 10 µM.
The target of data set [4] is Tyrosine-protein kinase Fyn (Homo sapiens, UniProt P06241). The data set is described as follows: biochemical. The data set is classed as cell-based, Insect cells. The following applies: insect cells.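 Further: enzymatic inhibition of Fyn kinase activity measured with Poly(Glu:Tyr) as the phosphorylation substrate; in other assays of this panel Not Active means under 50% inhibition at 10 µM.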
Tyrosine-protein kinase Fyn, sequence (P06241 whole entry): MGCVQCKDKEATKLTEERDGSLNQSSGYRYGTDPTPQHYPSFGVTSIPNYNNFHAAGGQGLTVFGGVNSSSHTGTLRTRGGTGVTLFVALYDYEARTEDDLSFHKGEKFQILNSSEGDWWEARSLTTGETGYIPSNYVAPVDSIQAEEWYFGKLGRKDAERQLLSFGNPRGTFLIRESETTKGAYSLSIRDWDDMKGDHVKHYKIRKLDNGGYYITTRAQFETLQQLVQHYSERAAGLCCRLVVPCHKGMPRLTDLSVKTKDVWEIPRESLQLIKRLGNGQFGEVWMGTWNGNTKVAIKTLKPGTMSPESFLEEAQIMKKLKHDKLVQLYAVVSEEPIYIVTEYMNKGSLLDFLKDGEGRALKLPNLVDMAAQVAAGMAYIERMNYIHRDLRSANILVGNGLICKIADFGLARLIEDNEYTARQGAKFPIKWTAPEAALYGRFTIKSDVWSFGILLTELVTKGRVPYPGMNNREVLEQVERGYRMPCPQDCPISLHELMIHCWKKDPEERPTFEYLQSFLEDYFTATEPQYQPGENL
The target in data set [5] is T3, Caspase-1 (Homo sapiens, UniProt P29466).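 Further: Caspase-1 enzyme inhibition assay with a peptide substrate; in other assays of this panel Not Active means under 50% inhibition at 10 µM.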
T3 sequence (P29466 whole entry): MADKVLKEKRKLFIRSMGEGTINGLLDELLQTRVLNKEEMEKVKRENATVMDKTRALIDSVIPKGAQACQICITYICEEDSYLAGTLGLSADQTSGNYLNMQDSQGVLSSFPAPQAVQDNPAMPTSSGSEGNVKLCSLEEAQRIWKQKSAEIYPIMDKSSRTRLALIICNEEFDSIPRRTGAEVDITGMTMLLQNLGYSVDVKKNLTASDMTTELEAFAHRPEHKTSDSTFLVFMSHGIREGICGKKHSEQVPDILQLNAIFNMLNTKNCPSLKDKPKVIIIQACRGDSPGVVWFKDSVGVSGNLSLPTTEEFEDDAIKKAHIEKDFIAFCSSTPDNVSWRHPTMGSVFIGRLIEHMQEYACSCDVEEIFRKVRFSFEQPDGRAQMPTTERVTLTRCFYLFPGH
The arrangement: species or system Escherichia coli.

The target of data set [6] is Carbonic anhydrase 2 (Homo sapiens, UniProt P00918). In words: DRUGMATRIX: Carbonic Anhydrase II enzyme inhibition (substrate: 4-Nitrophenyl acetate (4-NPA)). The data set is classed as tissue-based, Erythrocyte. The note with it: erythrocyte; Not Active = under 50% inhibition at 10 µM.
The target in data set [7] is T4, Cytochrome P450 2A6 (Homo sapiens, UniProt P11509). Further: in other assays of this panel Not Active means under 50% inhibition at 10 µM.
T4 sequence (P11509 whole entry): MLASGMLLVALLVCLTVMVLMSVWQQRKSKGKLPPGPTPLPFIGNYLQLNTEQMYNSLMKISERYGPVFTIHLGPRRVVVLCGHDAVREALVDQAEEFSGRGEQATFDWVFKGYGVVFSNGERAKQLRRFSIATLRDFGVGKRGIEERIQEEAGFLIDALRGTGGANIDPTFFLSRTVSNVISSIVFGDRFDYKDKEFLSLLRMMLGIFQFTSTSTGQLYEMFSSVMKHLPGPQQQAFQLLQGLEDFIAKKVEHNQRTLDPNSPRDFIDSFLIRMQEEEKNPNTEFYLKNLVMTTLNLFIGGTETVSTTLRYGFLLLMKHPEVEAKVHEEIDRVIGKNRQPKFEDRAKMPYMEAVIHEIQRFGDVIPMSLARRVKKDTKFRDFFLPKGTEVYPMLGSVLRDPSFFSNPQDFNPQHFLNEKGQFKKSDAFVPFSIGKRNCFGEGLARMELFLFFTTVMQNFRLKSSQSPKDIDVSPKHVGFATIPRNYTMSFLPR
The note with it: bti-tn-5b1-4.

Data set [8] is described as follows: DRUGMATRIX: ATPase, Na+/K+ enzyme inhibition (substrate: ATP). The data set is classed as tissue-based, Sus scrofa, Heart. The following applies: Not Active = under 50% inhibition at 10 µM.

Kappa-type opioid receptor, sequence (P41145 whole entry): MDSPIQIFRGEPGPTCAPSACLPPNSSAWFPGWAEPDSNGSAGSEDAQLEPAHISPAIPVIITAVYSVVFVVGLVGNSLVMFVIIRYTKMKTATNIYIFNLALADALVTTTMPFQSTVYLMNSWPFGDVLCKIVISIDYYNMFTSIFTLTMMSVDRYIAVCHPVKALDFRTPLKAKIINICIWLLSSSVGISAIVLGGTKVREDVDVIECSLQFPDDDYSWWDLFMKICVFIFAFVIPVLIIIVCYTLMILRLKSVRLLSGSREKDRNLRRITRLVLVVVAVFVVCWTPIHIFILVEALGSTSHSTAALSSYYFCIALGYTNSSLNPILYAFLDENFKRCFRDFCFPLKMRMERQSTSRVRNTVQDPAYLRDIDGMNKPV

Regarding `CC(C)CN(C[C@@H](O)[C@H](Cc1ccccc1)NC(=O)O[C@H]1CCOC1)S(=O)(=O)c1ccc(N)cc1`, the half-inhibitory concentration (IC50) result in data set [1] (reticulocytes), in data set [2], in data set [3], in data set [4], in data set [5] and in data set [6] was “Not Active” throughout. Also, the IC50 result in data set [7] and in data set [8] was “Not Active” throughout. In addition, the Ki result in data set [7] and in data set [8] was “Not Active” each time.
In the case of `c1ccc(Nc2ccc(Nc3ccccc3)cc2)cc1`, the IC50 (in general, the concentration that gives 50% inhibition) is 2880 nM in data set [1] (read-out: IC50); “Not Active” in data set [2]; “Not Active” in data set [3]; “Not Active” in data set [4]; “Not Active” in data set [5]; “Not Active” in data set [6]. Further, the IC50 result in data set [7] and in data set [8] was “Not Active” throughout. The Ki result in data set [7] and in data set [8] was “Not Active” in each case.
Take `Cc1onc(O)c1CC(N)C(=O)O` (racemic) [(R,S)-AMPA]: the IC50 result in data set [1] (reticulocytes), in data set [2], in data set [3], in data set [4], in data set [5] and in data set [6] was “Not Active” in each case. For the same compound, the IC50 entry in data set [7] and in data set [8] was “Not Active” throughout. Also, the Ki result in data set [7] and in data set [8] was “Not Active” in each case.
On to `CC[C@@]1(O)C[C@H](O[C@H]2C[C@H](N(C)C)[C@H](O[C@H]3C[C@H](O)[C@H](O[C@H]4CCC(=O)[C@H](C)O4)[C@H](C)O3)[C@H](C)O2)c2c(cc3c(c2O)C(=O)c2c(O)cccc2C3=O)[C@H]1C(=O)OC` [ACLARUBICIN], for which the IC50 result in data set [1] (reticulocytes), in data set [2], in data set [3], in data set [4], in data set [5] and in data set [6] was “Not Active” in each case. In addition, the IC50 result in data set [7] and in data set [8] was “Not Active” each time. Further, the Ki result in data set [7] and in data set [8] was “Not Active” each time.
As to `Nc1nc2c(ncn2COCCO)c(=O)[nH]1` [ACYCLOVIR], the IC50 entry in data set [1] (reticulocytes), in data set [2], in data set [3], in data set [4], in data set [5] and in data set [6] was “Not Active” throughout. In addition, the IC50 result in data set [7] and in data set [8] was “Not Active” each time. Moreover, the Ki result in data set [7] and in data set [8] was “Not Active” each time.
Consider `Cc1c(C)c2c(c(C)c1O)CC[C@@](C)(CCC[C@H](C)CCC[C@H](C)CCCC(C)C)O2` [ALPHA-TOCOPHEROL], for which the IC50 result in data set [1] (reticulocytes), in data set [2], in data set [3], in data set [4], in data set [5] and in data set [6] was “Not Active” each time. The concentration for half-maximal inhibition (IC50) result in data set [7] and in data set [8] was “Not Active” throughout. For the same compound, the Ki entry in data set [7] and in data set [8] was “Not Active” in each case.
For `NCCCCCC(=O)O` [AMINOCAPROIC ACID], the half-maximal inhibitory concentration (IC50) result in data set [1] (reticulocytes), in data set [2], in data set [3], in data set [4], in data set [5] and in data set [6] was “Not Active” throughout. Besides, the IC50 entry in data set [7] and in data set [8] was “Not Active” each time. The Ki entry in data set [7] and in data set [8] was “Not Active” in each case.
For `CCC1(c2ccc(N)cc2)CCC(=O)NC1=O` (stereo not given) [AMINOGLUTETHIMIDE], the IC50 entry in data set [1] (reticulocytes), in data set [2], in data set [3], in data set [4], in data set [5] and in data set [6] was “Not Active” throughout. Also, the 50% inhibitory concentration (IC50) entry in data set [7] and in data set [8] was “Not Active” each time. The Ki entry in data set [7] and in data set [8] was “Not Active” throughout.
For the compound `CCOC(=O)C1=C(COCCN)NC(C)=C(C(=O)OC)C1c1ccccc1Cl` (stereo not given) [AMLODIPINE], the IC50 result in data set [1] (reticulocytes), in data set [2], in data set [3], in data set [4], in data set [5] and in data set [6] was “Not Active” each time. The IC50 result in data set [7] and in data set [8] was “Not Active” throughout. In addition, the Ki entry in data set [7] and in data set [8] was “Not Active” in each case.
With `Nc1ncn([C@@H]2O[C@H](CO)[C@@H](O)[C@H]2O)c(=O)n1` [AZACITIDINE], the IC50 entry in data set [1] (reticulocytes), in data set [2], in data set [3], in data set [4], in data set [5] and in data set [6] was “Not Active” each time. The IC50 result in data set [7] and in data set [8] was “Not Active” each time. For the same compound, the Ki entry in data set [7] and in data set [8] was “Not Active” throughout.
As to `CN(C)C(=O)Oc1cc(OC(=O)N(C)C)cc(C(O)CNC(C)(C)C)c1` (stereo not given) [BAMBUTEROL], the IC50 entry in data set [1] (reticulocytes), in data set [2], in data set [3], in data set [4], in data set [5] and in data set [6] was “Not Active” each time. The IC50 entry in data set [7] and in data set [8] was “Not Active” in each case. Besides, the Ki entry in data set [7] and in data set [8] was “Not Active” throughout.
On to `c1ccc2c(c1)c1cccc3ccc4cccc2c4c31` [BENZO[E]PYRENE], for which the IC50 entry in data set [1] (reticulocytes), in data set [2], in data set [3], in data set [4], in data set [5] and in data set [6] was “Not Active” in each case. The IC50 result in data set [7] and in data set [8] was “Not Active” throughout. Besides, the Ki entry in data set [7] and in data set [8] was “Not Active” in each case.
As to `CC(C)C(Br)C(=O)NC(N)=O` (stereo not given) [BROMISOVALUM], the IC50 result in data set [1] (reticulocytes), in data set [2], in data set [3], in data set [4], in data set [5] and in data set [6] was “Not Active” in each case. The IC50 entry in data set [7] and in data set [8] was “Not Active” throughout. The Ki result in data set [7] and in data set [8] was “Not Active” in each case.
